Measured values taken from patent US20230381157A1, “RIFABUTIN FOR THE TREATMENT OF ACINETOBACTER BAUMANNII” (University of Southern California, priority 2018, published 2023).

Test system: A. baumannii AB5075 transposon disruption mutants
Assay: microbe, parasite or virus in culture
Format: cell-based, Acinetobacter baumannii

`CO[C@H]1/C=C/O[C@@]2(C)Oc3c(C)c(O)c4c(c3C2=O)C2=NC3(CCN(CC(C)C)CC3)NC2=C(NC(=O)/C(C)=C\C=C\[C@H](C)[C@H](O)[C@@H](C)[C@@H](O)[C@@H](C)[C@H](OC(C)=O)[C@@H]1C)C4=O` [rifabutin] was tested, and the “Rifabutin MIC” value (AB00188, disrupted gene aroP, RPMI, listed as RBT) was 0.05 µg/mL, the “Rifabutin MIC” value (AB00190, disrupted gene aroP, RPMI, listed as RBT) was 0.05 µg/mL and the “Rifabutin MIC” value (AB00215, disrupted gene tryP, RPMI, listed as RBT) was 0.05 µg/mL. The “Rifabutin MIC” value (AB00216, disrupted gene tryP, RPMI, listed as RBT) was 0.05 µg/mL, the Rifabutin MIC (AB01188, ABUW_0449 (hypothetical protein), MHII) was 1.56 µg/mL and the Rifabutin MIC (AB01188, ABUW_0449 (hypothetical protein), RPMI) was 0.05 µg/mL. It also gave a Rifabutin MIC (AB01192, ABUW_0449, MHII) of 1.56 µg/mL, a Rifabutin MIC (AB01192, ABUW_0449, RPMI) of 0.05 µg/mL and a Rifabutin MIC (AB01494, ABUW_0559 (putative phage-related membrane protein), MHII) of 3.13 µg/mL. The Rifabutin MIC (AB01494, ABUW_0559 (putative phage-related membrane protein), RPMI) was 0.05 µg/mL, the Rifabutin MIC (AB01495, ABUW_0559, MHII) was 6.25 µg/mL and the Rifabutin MIC (AB01495, ABUW_0559, RPMI) was 0.05 µg/mL. It also gave a Rifabutin MIC (AB02034, ABUW_0745 (hypothetical protein), MHII) of 0.78 µg/mL, a Rifabutin MIC (AB02034, ABUW_0745 (hypothetical protein), RPMI) of 0.05 µg/mL and a Rifabutin MIC (AB02035, ABUW_0745, MHII) of 1.56 µg/mL. The Rifabutin MIC (AB02035, ABUW_0745, RPMI) was 0.05 µg/mL, the “Rifabutin MIC” value (AB02204, disrupted gene aroP, RPMI, listed as RBT) was 0.05 µg/mL and the “Rifabutin MIC” value (AB02205, disrupted gene aroP, RPMI, listed as RBT) was 0.05 µg/mL. It also gave a Rifabutin MIC (AB02891, ABUW_1069 (NADH dehydrogenase), MHII) of 3.13 µg/mL, a Rifabutin MIC (AB02891, ABUW_1069 (NADH dehydrogenase), RPMI) of 0.05 µg/mL and a Rifabutin MIC (AB02892, ABUW_1069, MHII) of 6.25 µg/mL. The Rifabutin MIC (AB02892, ABUW_1069, RPMI) was 0.05 µg/mL, the “Rifabutin MIC” value (AB03015, disrupted gene aroP, RPMI, listed as RBT) was 0.05 µg/mL and the “Rifabutin MIC” value (AB03608, disrupted gene hisJ, RPMI, listed as RBT) was 0.05 µg/mL. For the same compound, the “Rifabutin MIC” value (AB03612, disrupted gene hisM, RPMI, listed as RBT) was 0.05 µg/mL, the “Rifabutin MIC” value (AB03616, disrupted gene hisM, RPMI, listed as RBT) was 0.05 µg/mL and the “Rifabutin MIC” value (AB03618, disrupted gene hisM, RPMI, listed as RBT) was 0.05 µg/mL. It also gave a Rifabutin MIC (AB04576, ABUW_1741 (outer membrane protein assembly factor BamA), MHII) of 1.56 µg/mL, a Rifabutin MIC (AB04576, ABUW_1741 (outer membrane protein assembly factor BamA), RPMI) of 0.05 µg/mL and a Rifabutin MIC (AB04593, ABUW_1750 (HAD-superfamiy hydrolase), MHII) of 3.13 µg/mL. It also gave a Rifabutin MIC (AB04593, ABUW_1750 (HAD-superfamiy hydrolase), RPMI) of 0.05 µg/mL, a Rifabutin MIC (AB04594, ABUW_1750, MHII) of 3.13 µg/mL and a Rifabutin MIC (AB04594, ABUW_1750, RPMI) of 0.05 µg/mL. For the same compound, the Rifabutin MIC (AB04749, ABUW_1817 (putative peroxidase(alpha/beta hydrolase)), MHII) was 3.13 µg/mL, the Rifabutin MIC (AB04749, ABUW_1817 (putative peroxidase(alpha/beta hydrolase)), RPMI) was 0.05 µg/mL and the Rifabutin MIC (AB04750, ABUW_1817, MHII) was 3.13 µg/mL. The Rifabutin MIC (AB04750, ABUW_1817, RPMI) was 0.05 µg/mL, the “Rifabutin MIC” value (AB5075-UW (parent strain), RPMI, listed as RBT) was 0.05 µg/mL and the Rifabutin MIC (AB05089, ABUW_1933 (NADP-dependent fatty aldehyde dehydrogenase), MHII) was 1.56 µg/mL. For the same compound, the Rifabutin MIC (AB05089, ABUW_1933 (NADP-dependent fatty aldehyde dehydrogenase), RPMI) was 0.05 µg/mL, the Rifabutin MIC (AB05348, ABUW_2057 (alcohol dehydrogenase), MHII) was 1.56 µg/mL and the Rifabutin MIC (AB05348, ABUW_2057 (alcohol dehydrogenase), RPMI) was 0.05 µg/mL. The Rifabutin MIC (AB05361, ABUW_2062 (phospholipase D family protein), MHII) was 1.56 µg/mL, the Rifabutin MIC (AB05361, ABUW_2062 (phospholipase D family protein), RPMI) was 0.05 µg/mL and the Rifabutin MIC (AB05362, ABUW_2062, MHII) was 1.56 µg/mL. For the same compound, the Rifabutin MIC (AB05362, ABUW_2062, RPMI) was 0.05 µg/mL, the Rifabutin MIC (AB05479, ABUW_2100 (LysR family transcriptional regulator), MHII) was 3.13 µg/mL and the Rifabutin MIC (AB05479, ABUW_2100 (LysR family transcriptional regulator), RPMI) was 0.05 µg/mL. It also gave a Rifabutin MIC (AB05480, ABUW_2100, MHII) of 1.56 µg/mL, a Rifabutin MIC (AB05480, ABUW_2100, RPMI) of 0.05 µg/mL and a Rifabutin MIC (AB05672, ABUW_2165, MHII) of 6.25 µg/mL. It also gave a Rifabutin MIC (AB05672, ABUW_2165, RPMI) of 3.13 µg/mL, a Rifabutin MIC (AB05673, ABUW_2165, MHII) of 3.13 µg/mL and a Rifabutin MIC (AB05673, ABUW_2165, RPMI) of 3.13 µg/mL. For the same compound, the Rifabutin MIC (AB05674, ABUW_2165, MHII) was 3.13 µg/mL, the Rifabutin MIC (AB05674, ABUW_2165, RPMI) was 1.56 µg/mL and the Rifabutin MIC (AB05756, ABUW_2194 (acyl-CoA dehydrogenase), MHII) was 1.56 µg/mL. The Rifabutin MIC (AB05756, ABUW_2194 (acyl-CoA dehydrogenase), RPMI) was 0.05 µg/mL, the Rifabutin MIC (AB05757, ABUW_2194, MHII) was 6.25 µg/mL and the Rifabutin MIC (AB05757, ABUW_2194, RPMI) was 0.05 µg/mL. It also gave a Rifabutin MIC (AB05837, ABUW_2228 (TonB-dependent receptor), MHII) of 3.13 µg/mL, a Rifabutin MIC (AB05837, ABUW_2228 (TonB-dependent receptor), RPMI) of 0.05 µg/mL and a Rifabutin MIC (AB05838, ABUW_2228, MHII) of 3.13 µg/mL. It also gave a Rifabutin MIC (AB05838, ABUW_2228, RPMI) of 0.05 µg/mL, a Rifabutin MIC (AB06047, ABUW_2307 (biotin synthase), MHII) of 0.05 µg/mL and a Rifabutin MIC (AB06047, ABUW_2307 (biotin synthase), RPMI) of 0.05 µg/mL. For the same compound, the Rifabutin MIC (AB06049, ABUW_2307, MHII) was 0.05 µg/mL, the Rifabutin MIC (AB06049, ABUW_2307, RPMI) was 0.05 µg/mL and the Rifabutin MIC (AB06076, ABUW_2318 (cytosine permease), RPMI) was 0.05 µg/mL. It also gave a Rifabutin MIC (AB06077, ABUW_2318, MHII) of 1.56 µg/mL, a Rifabutin MIC (AB06077, ABUW_2318, RPMI) of 0.05 µg/mL and a Rifabutin MIC (AB06089, ABUW_2322 (integrase), MHII) of 3.13 µg/mL. The Rifabutin MIC (AB06089, ABUW_2322 (integrase), RPMI) was 0.05 µg/mL, the Rifabutin MIC (AB06091, ABUW_2322, MHII) was 6.25 µg/mL and the Rifabutin MIC (AB06091, ABUW_2322, RPMI) was 0.05 µg/mL. The “Rifabutin MIC” value (AB06105, disrupted gene aroP, RPMI, listed as RBT) was 0.05 µg/mL and the “Rifabutin MIC” value (AB06383, disrupted gene hisJ, RPMI, listed as RBT) was 0.05 µg/mL.
